Results reported in patent US3974152A, “3-Ethyl- and 3-(2'cyanoethyl)-cephalosporins” (Glaxo Laboratories Limited, priority 1970, dated 1976).
≈ marks a conversion by molar mass, not a printed value.

Experiments:
E. COLI 573 = assay: Tube Dilution Assay, E. COLI 573; type: cell-based; conditions: Escherichia coli; read-out: Tube Dilution Assay, gram negative, E. COLI 573
STAPH AUREUS 11127 [1] = assay: Mouse Protection, STAPH AUREUS 11127; type: in vivo; conditions: Staphylococcus aureus
[2] = R.O.U.R.: recovery of the antibiotic from the urine of female rats following oral administration; type: in vivo; conditions: rat
Text: *R.O.U.R. = % recovery of the antibiotic from the urine of female rats
following oral administration of the antibiotic.

STAPH AUREUS 604 = assay: Tube Dilution Assay, STAPH AUREUS 604; type: cell-based; conditions: Staphylococcus aureus; read-out: Tube Dilution Assay, gram positive, STAPH AUREUS 604
PR. MIRABILIS 431 = assay: Tube Dilution Assay, PR. MIRABILIS 431; type: cell-based; conditions: Proteus mirabilis; read-out: Tube Dilution Assay, gram negative, PR. MIRABILIS 431
STAPH AUREUS 3452 = assay: Tube Dilution Assay, STAPH AUREUS 3452; type: cell-based; conditions: Staphylococcus aureus; read-out: Tube Dilution Assay, gram positive, STAPH AUREUS 3452
STAPH AUREUS 11127 [3] = assay: Tube Dilution Assay, STAPH AUREUS 11127; type: cell-based; conditions: Staphylococcus aureus; read-out: Tube Dilution Assay, gram positive, STAPH AUREUS 11127
STAPH AUREUS 663 = assay: Tube Dilution Assay, STAPH AUREUS 663; type: cell-based; conditions: Staphylococcus aureus; read-out: Tube Dilution Assay, gram positive, STAPH AUREUS 663
S. TYPHIMURIUM 804 = assay: Tube Dilution Assay, S. TYPHIMURIUM 804; type: cell-based; conditions: Salmonella enterica, read-out: Tube Dilution Assay, gram negative, S. TYPHIMURIUM 804
[4] = system: gram-positive and gram-negative organisms; assay: in vitro antibacterial tests; type: cell-based
[5] = absorption and blood levels by the oral route; type: in vivo
[6] = animal tests of degradation in vivo
[7] = activity on oral administration; type: in vivo

SMILES | MIC (E. COLI 573) [µg/mL] | ED50 (STAPH AUREUS 11127 [1]) [mg/kg] | dose excreted [2] [%] | MIC (STAPH AUREUS 604) [µg/mL] | MIC (PR. MIRABILIS 431) [µg/mL] | MIC (STAPH AUREUS 3452) [µg/mL] | MIC (STAPH AUREUS 11127 [3]) [µg/mL] | MIC (STAPH AUREUS 663) [µg/mL] | MIC (S. TYPHIMURIUM 804) [µg/mL] | activity against gram-positive and gram-negative organisms [4] | absorption by the oral route [5] | blood levels [5] | degradation in vivo [6] | activity on oral administration [7]
CCC1=C(C(=O)O)N2C(=O)[C@@H](NC(=O)[C@H](N)c3ccccc3)[C@H]2SC1.O=C(O)C(F)(F)F [1(d), 7β-(D-2-Amino-2-phenylacetamido)-3-ethylceph-3-em-4-carboxylic acid, Trifluoroacetic Acid Salt] | 8 | < 6 | 45 | 1.6 | 16 | 1.6 | 0.08 | 0.3 | 16 | – | – | – | – | –
N#CCCC1=C(C(=O)O)N2C(=O)[C@@H](NC(=O)Cc3cccs3)[C@H]2SC1 [2(c), 3-(2-Cyanoethyl)-7β-(2-thienylacetamido)ceph-3-em-4-carboxylic acid] | 62 (≈ 164 µM) | – | 2.1 | 1.25 (≈ 3.31 µM) | 31 (≈ 82.1 µM) | 4 (≈ 10.6 µM) | 1 (≈ 2.65 µM) | 0.08 (≈ 0.212 µM) | 16 (≈ 42.4 µM) | – | – | – | – | –
CCC1=C(C(=O)O)N2C(=O)[C@@H](NC(=O)[C@H](N)c3ccccc3)[C@H]2SC1 [Example 4(b), 7β-(D-2-Amino-2-phenylacetamido)-3-ethylceph-3-em-4-carboxylic acid] | – | – | – | – | – | – | – | – | – | active against gram-positive and gram-negative organisms | well absorbed | good blood levels | substantially resistant to degradation in vivo | appreciable level of activity
